Source: article PMC9820559, “Investigation of the Fuzzy Complex between RSV Nucleoprotein and Phosphoprotein to Optimize an Inhibition Assay by Fluorescence Polarization” (International Journal of Molecular Sciences, 2022)
Ends that are not written are not given here. Peptide text beside a SMILES is read from it. * marks the point of attachment. dicyano BODIPY FL = CC1=CC(C)=[N+]2C1=Cc1ccc(CCC(=O)*)n1[B-]2(C#N)C#N; FITC = O=C1OC2(c3ccc(O)cc3Oc3cc(O)ccc32)c2ccc(NC(=S)*)cc21; X1 = Cc1cc(C)n2c1C=C1C=CC(CCC(=O)*)=[N+]1[B-]2(C#N)C#N

Experiments:
RSV N-RNA complex [1] = target: T1, RSV N-RNA complex (Human respiratory syncytial virus A, UniProt P03418); test: biochemical; assay type: binding
T1 construct: Full-length N was produced by co-expression with the C-terminal domain of RSV P protein in E. coli BL21(DE3); made in house; host or cells: E. coli BL21(DE3), co-transformed with pET-N and pGEX-P(161–241)
Procedure: We carried out FP measurements using the fluorescent F11 peptide and N-RNA complex. […] No salt was added to promote high affinity.
We first measured binding of Fn peptides (200 nM) to N-RNA in Tris buffer by FP (Figure 5A,B). […] We fitted the data with ΔFPmax and Kd as parameters.
We therefore measured fluorescein FP in the presence of N-RNA. […] To test if fluorescein binds to the P-binding site on the N-RNA, we carried out a competition experiment with M76 (Figure 6C).
We first performed FP measurements in salt-free Tris pH 8 buffer (Figure 8A). We measured binding curves using 200 nM of fluorescent peptides.
(§1) Fluorescence polarization measurements were carried out on a Paradigm Detection Platform (Beckman Coulter, Brea, CA, USA) operating with a microplate reader, a fluorescein detection cartridge (excitation range 485/20 nm, emission range 535/25 nm for both parallel and perpendicular components) and the SpectraMax Pro 6.1 software (Molecular Devices, San Jose, CA, USA). Samples were placed in polystyrene black flat bottom 96-well microplates (Cellstar, Greiner bio-one, Frickenhausen, Germany) with 20 µL final volume in each well. If not stated otherwise, the final concentration of fluorescent ligands was 200 nM. The buffer was either 20 mM MES pH 6.5, salt-free or with 250 mM NaCl, or 20 mM Tris pH 8.0 salt-free or with 100 mM NaCl, supplemented with 0.01% Brij-35. Mixing was done using the corresponding plate reader option. The temperature was set to 20 °C. Data were recorded in top reading mode. Measurements were done in triplicate and after an incubation time of 30 min, if not indicated otherwise. Fluorescence polarization (FP) in mFP units was determined from the parallel (I∥) and perpendicular (I⊥) components of the emitted light according to Equation (4). A grating factor G of 1.2 was determined using 1 nM fluorescein in 1 mM NaOH and assuming a theoretical FP of 27 mFP [48]. Background signal was measured from wells containing only buffer, and the mean value was subtracted from each I∥ and I⊥ component. (4) FP (mP)=1000×(I∥−G∗I⊥)/(I∥+G×I⊥)
We assumed that the measured fluorescence polarization FP is a linear combination of the FP of the fluorescent probe in the absence of N protein (FPmin) and the FP of N-bound fluorescent probe (FPmax), weighted by the molar fraction. The molar fraction x = [P]bound/[P]0 can then be expressed as a ratio of FP differences (Equation (8)). (8) x=(FP−FPmin)/(FPmax−FPmin)=∆FP/∆FPmax
To determine the Kd value of a complex between a fluorescent probe and N protein, a series of samples with constant probe concentration and varying N concentration was measured. FP binding curves were fitted with a single binding site model and a 1:1 stoichiometry.

RSV N-RNA complex [2] = target: T1, RSV N-RNA complex; test: Fluorescence polarization inhibition of N-RNA binding to fluorescent probes; settings: probe BCN8E 200 nM
From the text: We next performed inhibition experiments for the F11-(N-RNA) complex by M76 (Figure 4B). FP values decreased with increasing competitor concentration. At saturation, FP nearly reached the value of free F11, showing that the F11 peptide could be nearly completely displaced. Since the same concentration range was used for NNTD and N-RNA, poor solubility of M76 can be ruled out to explain the saturation observed before complete displacement of F11 in the presence NNTD (Figure 3C). This reinforces the hypothesis of a second binding site on NNTD, outside the canonical P-binding site. […]
To probe the potency of M76 as an inhibitor, we carried out competition experiments with the M76 molecule and several BCNn peptides. M76 was able to displace the fluorescent probes from N-RNA, and inhibition curves were obtained (Figure 8E). Since we used different N concentrations to have similar dynamic ranges of FP for the series of fluorescent peptides, we cannot directly compare M76 IC50s. However, Kis may be compared.
as §1
To assess inhibition of a complex between a fluorescent probe and N protein by peptides or the M76 molecule, the concentration of N was set to work with an FP range comprised between FPmin and ~80% FPmax. Peptides were added from 1 or 2 mM stock solution in water at neutral pH. M76 was added from 10 or 20 mM stock solutions in ethanol or in DMSO. […] Inhibition data were fitted with Origin 7, and in parallel with the Excel solver module. All data were compatible with an absence of cooperativity. FPmax and FPmin were fitted, and the maximal inhibition %i,max was set to 100%. (11) %i=100×[1−(FP−FPmin)/(FPmax−FPmin)] (12) %i=%i,max×[inhibitor]/[inhibitor]+IC50
Inhibition constants Ki were calculated on the IC50-to-Ki converter for a protein-ligand-inhibitor system (https://bioinfo-abcc.ncifcrf.gov/IC50_Ki_Converter/index.php, accessed on 24 August 2022), assuming a competitive mechanism (Equation (13)). This tool takes into account the free concentrations of protein and ligand. (13) Ki=(IC50−[protein]/2)/([peptide]/Kd+1)

[3] = target: T2, RSV N-RNA complex (full-length N protein in ring-shaped complexes with bacterial RNA) (human respiratory syncytial virus, UniProt P03418 1-391); test: fluorescence polarisation; competition: unlabeled P7E varied against 200 nM F7E on 10 µM N-RNA; Tris pH 8 without salt; Hill equation; Ki from the IC50-to-Ki server; settings: both partners purified
T2 construct: human RSV nucleoprotein N, full length; concentrations are of N protomer; also called N-RNA rings; source: in lysate for the co-purification; purified (glutathione-Sepharose, thrombin, Superdex 200) as N-RNA complex; copies: 10-11
T2 sequence (looked up): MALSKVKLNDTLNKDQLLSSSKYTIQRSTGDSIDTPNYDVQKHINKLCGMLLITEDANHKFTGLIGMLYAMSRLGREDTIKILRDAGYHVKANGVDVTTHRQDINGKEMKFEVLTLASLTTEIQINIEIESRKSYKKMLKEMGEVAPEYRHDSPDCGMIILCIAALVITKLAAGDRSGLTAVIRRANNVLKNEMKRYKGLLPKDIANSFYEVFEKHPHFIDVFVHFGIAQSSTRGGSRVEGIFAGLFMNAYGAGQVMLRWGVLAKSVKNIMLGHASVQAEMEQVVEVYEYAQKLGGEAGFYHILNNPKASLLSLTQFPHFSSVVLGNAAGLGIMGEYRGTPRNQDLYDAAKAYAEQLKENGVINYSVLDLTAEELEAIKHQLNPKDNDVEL

[4] = target: T2, RSV N-RNA complex (full-length N …); test: fluorescence polarisation; competition: unlabeled P peptide varied against 200 nM F11 on 10 µM N-RNA; Tris pH 8 without salt; Hill equation; Ki from the IC50-to-Ki server; settings: both partners purified
[5] = target: T2, RSV N-RNA complex (full-length N …); test: fluorescence polarisation; 200 nM dicyano BODIPY FL-labelled BCNn peptide, N-RNA varied; 20 mM Tris pH 8.0 without salt, 0.01% Brij-35; 20 °C; single site model; settings: both partners purified
[6] = Kd, BCNn peptides 200 nM, Tris pH 8.0, no salt, single site model
[7] = apparent Kd, fluorescent molecules 200 nM, Tris pH 8 without salt, calculated assuming FPmax = 500 mFP
[8] = BCNn peptides 200 nM, Tris pH 8.0, no salt, single site model

Cc1cc(C)n2c1C=C1C=CC(CCC(=O)N[C@@H](CC(=O)O)C(=O)N[C@@H](CC(C)C)C(=O)N[C@@H](CCC(=O)O)C(=O)N[C@@H](CC(C)C)C(=O)N[C@@H](CCC(=O)O)C(=O)N[C@@H](CC(=O)O)C(=O)N[C@@H](Cc3ccccc3)C(=O)O)=[N+]1[B-]2(C#N)C#N [BCN7E, BCN-DLELEDF-OH] (X1-DLELEDF-OH)
Kd (RSV N-RNA complex [1]; [6]): 2.2 ± 0.2 µM

Cc1cc(C)n2c1C=C1C=CC(CCC(=O)N[C@@H](CCC(=O)O)C(=O)N[C@@H](CC(C)C)C(=O)N[C@@H](CCC(=O)O)C(=O)N[C@@H](CC(=O)O)C(=O)N[C@@H](Cc3ccccc3)C(=O)O)=[N+]1[B-]2(C#N)C#N [BCN5E, BCN-ELEDF-OH] (X1-ELEDF-OH)
Kd (RSV N-RNA complex [1]; [6]): 9.8 ± 0.9 µM

CCOC(=O)c1ccccc1-c1c2ccc(=O)cc-2oc2cc(O)ccc12 [Fluorescein ethyl ester 3, fluorescein ethyl ester]
Kd (RSV N-RNA complex [1]; [7]): 250 ± 27 µM

Cc1cc(C)n2c1C=C1C=CC(CCC(=O)O)=[N+]1[B-]2(F)F [4,4′ difluoro BODIPY FL 4, 4,4′ difluoro BODIPY FL]
FP values compared to fluorescein at the same N-RNA concentrations (RSV N-RNA complex [1]; 200 nM probe, Tris pH 8 without salt, also bound to N-RNA): markedly lower
Kd (RSV N-RNA complex [1]; [7]): 870 ± 140 µM

CC(C)C[C@H](NC(=O)[C@H](CCC(=O)O)NC(=O)[C@H](CC(C)C)NC(=O)[C@H](CC(=O)O)NC(=O)[C@H](CC(N)=O)NC(=O)[C@H](CC(=O)O)NC(=S)Nc1ccc2c(c1)C(=O)OC21c2ccc(O)cc2Oc2cc(O)ccc21)C(=O)N[C@@H](CCC(=O)O)C(=O)N[C@@H](CC(=O)O)C(=O)N[C@@H](Cc1ccccc1)C(=O)O [F9E, ϕ-DNDLE237LEDF-OH] ({FITC}-DNDLELEDF-OH)
Kd (RSV N-RNA complex [1]; Kd, Fn peptides 200 nM, Tris pH 8.0 without salt, single site binding model): 2.2 ± 0.3 µM

Cc1cc(C)n2c1C=C1C=CC(CCC(=O)N[C@@H](CC(N)=O)C(=O)N[C@@H](CC(=O)O)C(=O)N[C@@H](CC(C)C)C(=O)N[C@@H](CCC(=O)O)C(=O)N[C@@H](CC(C)C)C(=O)N[C@@H](CCC(=O)O)C(=O)N[C@@H](CC(=O)O)C(=O)N[C@@H](Cc3ccccc3)C(=O)O)=[N+]1[B-]2(C#N)C#N [BCN8E] (X1-NDLELEDF-OH)
Fitted FPmax (RSV N-RNA complex [2]; inhibitor M76, [N-RNA] 2 µM): 166 mFP
Fitted FPmax (RSV N-RNA complex [2]; inhibitor M76, [N-RNA] 5 µM): 196 mFP
decrease of affinity in salty buffer versus salt-free buffer (RSV N-RNA complex [1]; 100 mM NaCl vs no salt, Tris pH 8): 5 fold
Kd (RSV N-RNA complex [1]; [8]): 1.4 µM
ΔFPmax (RSV N-RNA complex [1]; [8]): 298 ± 5 mFP
ΔFPmax (RSV N-RNA complex [1]; BCNn peptides 200 nM, Tris pH 8.0, with salt (100 mM NaCl), (*) saturation not reached): 284 ± 15 (*) mFP

B1: P7E (unlabeled RSV P 7-mer, Ser237Glu) (peptide)
peptide: DLELEDF
notes: unlabeled peptide from which F7E was made; C-terminal 7 residues of RSV phosphoprotein P; source: synthetic peptide (Fmoc/tBu solid phase, RP-HPLC purified)
IC50 [3]: 376 ± 26 µM
Ki [3]: 74 µM
IC50 [4]: 180 ± 11 µM
Ki [4]: 75 µM

B2: BCN9E (dicyano BODIPY FL-labelled RSV P 9-mer, Ser237Glu) (peptide)
peptide: {dicyano BODIPY FL}-DNDLELEDF
notes: C-terminal 9 residues of RSV phosphoprotein P with a phosphomimetic glutamate at 237; also called B9E; source: synthetic peptide (Fmoc/tBu solid phase, dicyano BODIPY FL coupled on resin, RP-HPLC purified)
Kd [5]: 0.96 ± 0.13 µM

B3: P9E (unlabeled RSV P 9-mer, Ser237Glu) (peptide)
peptide: DNDLELEDF
notes: unlabeled peptide from which F9E was made; C-terminal 9 residues of RSV phosphoprotein P; source: synthetic peptide (Fmoc/tBu solid phase, RP-HPLC purified)
IC50 [4]: 66 ± 6 µM
Ki [4]: 25 µM
